Values after ≈ are worked out from the molar mass of the structure shown.
Assays:
Format in all cases: functional
Staphylococcus aureus [1] = assay: Antibacterial activity against Staphylococcus aureus assessed as bacterial growth inhibtion incubated for 18 hrs by resazurin dye based microdilution assay
Staphylococcus aureus [2] = assay: Antibacterial activity against Methicillin-sensitive Staphylococcus aureus ATCC 25923 assessed as bacterial growth inhibtion incubated for 18 hrs by resazurin dye based microdilution assay
Staphylococcus aureus [3] = assay: Antibacterial activity against Methicillin-resistant Staphylococcus aureus ATCC 43300 assessed as bacterial growth inhibtion incubated for 18 hrs by resazurin dye based microdilution assay
Staphylococcus aureus [4] = assay: Potency index, ratio of eucalrobusone-F MIC to test compound MIC for antibacterial activity against Staphylococcus aureus

Structure (SMILES): CC(=O)CC[C@@H]1[C@H]([C@@H]2C[C@@](C)(C(CC(C)C)c3c(O)c(C=O)c(O)c(C=O)c3O)CC2=O)C1(C)C (some centres not stated)
- MIC (Staphylococcus aureus [1]): 16.5 µM (≈ 8.03 µg/mL)

Structure (SMILES): CC(C)C[C@@H](c1c(O)c(C=O)c(O)c(C=O)c1O)C1CC[C@@](C)(O)[C@@H]2C[C@H](C(C)(C)O)CC[C@@]12C (some centres not stated)
- MIC (Staphylococcus aureus [1]): 16.8 µM (≈ 8.24 µg/mL)

Structure (SMILES): C=C1CC[C@@H]2[C@H]([C@H]3[C@H]1CC[C@]3(C)Cc1c(O)c(C=O)c(O)c(C(=O)CCC)c1O)C2(C)C
- MIC (Staphylococcus aureus [1]): 7.1 µM (≈ 3.13 µg/mL)

Structure (SMILES): CO[C@H]1/C=C/O[C@@]2(C)Oc3c(C)c(O)c4c(O)c(c(/C=N/N5CCN(C)CC5)c(O)c4c3C2=O)NC(=O)/C(C)=C\C=C\[C@H](C)[C@H](O)[C@@H](C)[C@@H](O)[C@@H](C)[C@H](OC(C)=O)[C@@H]1C [RIFAMPIN]
- MIC (Staphylococcus aureus [2]): 0.16 µM (≈ 0.132 µg/mL)
- MIC (Staphylococcus aureus [3]): 0.16 µM (≈ 0.132 µg/mL)

Structure (SMILES): CC(C)C[C@H]1c2c(O)c(C=O)c(O)c(C=O)c2O[C@]2(C)C=CC(=O)C[C@@H]12
- MIC (Staphylococcus aureus [2]): > 89.4 µM
- MIC (Staphylococcus aureus [3]): > 89.4 µM

Structure (SMILES): CC(C)CC(=O)c1c(O)c(C=O)c(O)c(C[C@H]2CC(C(C)C)=C[C@H]3Oc4c(c(O)c(C=O)c(O)c4C(=O)CC(C)C)C[C@@]23C)c1O
- MIC (Staphylococcus aureus [1]): 12.6 µM (≈ 8.02 µg/mL)
- MIC (Staphylococcus aureus [2]): 12.6 µM (≈ 8.02 µg/mL)
- MIC (Staphylococcus aureus [3]): 12.6 µM (≈ 8.02 µg/mL)

Structure (SMILES): C=C(C)[C@@H]1C=C2[C@@H](C)CC[C@@H](Cc3c(O)c(C=O)c(O)c(C(=O)CCC)c3O)[C@]2(C)CC1
- MIC (Staphylococcus aureus [1]): 3.5 µM (≈ 1.54 µg/mL)

Structure (SMILES): CC(C)CC(c1c(O)c(C=O)c(O)c(C=O)c1O)C1(C)CCC2C1C1C(CCC2(C)O)C1(C)C (configuration not stated)
- MIC (Staphylococcus aureus [1]): 3.3 µM (≈ 1.56 µg/mL)

Structure (SMILES): C=C1CCC2C(C3C1CCC3(C)C(CC(C)C)c1c(O)c(C=O)c(O)c(C=O)c1O)C2(C)C (configuration not stated)
- MIC (Staphylococcus aureus [1]): 6.9 µM (≈ 3.14 µg/mL)

Structure (SMILES): CC(C)CC(=O)c1c(O)c(C=O)c(O)c(C[C@@]2(C)CC[C@@H]3[C@@H]2[C@H]2[C@@H](CC[C@@]3(C)O)C2(C)C)c1O [EUCALYPTIN A]
- MIC (Staphylococcus aureus [1]): 7.4 µM (≈ 3.5 µg/mL)

Structure (SMILES): C=C(C)[C@@H]1CC[C@@]2(C)[C@H](Cc3c(O)c(C=O)c(O)c(C(=O)CC(C)C)c3O)CC[C@@](C)(O)[C@@H]2C1
- MIC (Staphylococcus aureus [1]): 19.9 µM (≈ 9.41 µg/mL)

Structure (SMILES): CC(C)CC(c1c(O)c(C=O)c(O)c(C=O)c1O)C1(C)CCC2C1=CC(C(C)(C)O)CCC2C (configuration not stated)
- MIC (Staphylococcus aureus [1]): 3.3 µM (≈ 1.56 µg/mL)

Structure (SMILES): CC(C)CC(=O)c1c(O)c(C=O)c2c(c1O)C[C@@H]1CC(=O)CC[C@]1(C)O2
- MIC (Staphylococcus aureus [2]): > 899 µM
- MIC (Staphylococcus aureus [3]): > 899 µM

Structure (SMILES): CC(C)CC(=O)c1c(O)c(C=O)c(O)c(C[C@H]2CC(C(C)C)=C[C@H]3Oc4c(C=O)c(O)c(C(=O)CC(C)C)c(O)c4C[C@@]23C)c1O
- MIC (Staphylococcus aureus [1]): 6.3 µM (≈ 4.01 µg/mL)
- MIC (Staphylococcus aureus [2]): 6.3 µM (≈ 4.01 µg/mL)
- MIC (Staphylococcus aureus [3]): 6.3 µM (≈ 4.01 µg/mL)
- Ratio (Staphylococcus aureus [4]): ~2

Structure (SMILES): Cc1c(O)c(C=O)c(O)c([C@H]2Oc3c(C=O)c(O)c(C(=O)CC(C)C)c(O)c3C[C@@H]2C(C)C)c1O
- MIC (Staphylococcus aureus [2]): > 65.8 µM
- MIC (Staphylococcus aureus [3]): > 65.8 µM

Structure (SMILES): CC(C)CC(c1c(O)c(C=O)c(O)c(C=O)c1O)C1(C)C=C2CCC1C(C(C)(C)O)CCC2C (configuration not stated)
- MIC (Staphylococcus aureus [1]): 3.4 µM (≈ 1.61 µg/mL)

Structure (SMILES): C=C(C)[C@@H]1C=C2[C@@H](C)CC[C@@H](Cc3c(O)c(C=O)c(O)c(C(=O)CC(C)C)c3O)[C@]2(C)CC1
- MIC (Staphylococcus aureus [1]): 4.7 µM (≈ 2.14 µg/mL)

Structure (SMILES): CC(C)C[C@@H](c1c(O)c(C=O)c(O)c(C=O)c1O)[C@@]1(C)CC[C@@H]2[C@@H]1[C@H]1[C@@H](CC[C@@]2(C)O)C1(C)C [MACROCARPAL A]
- MIC (Staphylococcus aureus [1]): 3.3 µM (≈ 1.56 µg/mL)

Structure (SMILES): CC(C)CC(c1c(O)c(C=O)c(O)c(C=O)c1O)C1(C)/C=C2/CCC2C(C(C)(C)O)CCC1C (configuration not stated)
- MIC (Staphylococcus aureus [1]): 1.7 µM (≈ 0.803 µg/mL)

Structure (SMILES): CC(C)CC(=O)c1c(O)c(C=O)c(O)c2c1O[C@]1(C)[C@H](C2)C[C@@]2(C(C)C)C[C@H]21
- MIC (Staphylococcus aureus [2]): > 82.9 µM
- MIC (Staphylococcus aureus [3]): > 82.9 µM

Structure (SMILES): CC(C)CC(=O)c1c(O)c(C=O)c(O)c2c1O[C@H]1[C@H]3[C@@H](CC[C@]4(C)Oc5c(c(O)c(C=O)c(O)c5C(=O)CC(C)C)C[C@H]4CC[C@]1(C)C2)C3(C)C
- MIC (Staphylococcus aureus [2]): > 45.4 µM
- MIC (Staphylococcus aureus [3]): > 45.4 µM

Reference: ChEMBL document CHEMBL5370569, “Camaldulensals A-C, the First Meroterpenoids Possessing Two Spatially Separated Formyl Phloroglucinols Conjugated to a Terpene Core from the Leaves of Eucalyptus camaldulensis Dehnh” (2023)
